Test results: patent publication US20240368135A1 (VERTEX PHARMACEUTICALS INCORPORATED, priority 2021, published 2024)

Target: human NaV 1.8 (Homo sapiens, UniProt Q9Y5Y9)
Assay: E-VIPR assay detecting and measuring NaV inhibition properties
Assay type: cell-based
Details: HEK cells expressing truncated human NaV 1.8; no human serum; read-out: IC50 in the E-VIPR Assay
How it was run: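 Membrane potential was followed by coumarin/oxonol FRET during electrical field stimulation of matrigel-seeded HEK cells carrying truncated human NaV1.8 plus KIR2.1. Dosing used 11 points, 3-fold steps, top 300 nM final, 0.625% DMSO, with or without 25% human serum.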

Chain of human NaV 1.8 (Q9Y5Y9 126-399 limits assumed): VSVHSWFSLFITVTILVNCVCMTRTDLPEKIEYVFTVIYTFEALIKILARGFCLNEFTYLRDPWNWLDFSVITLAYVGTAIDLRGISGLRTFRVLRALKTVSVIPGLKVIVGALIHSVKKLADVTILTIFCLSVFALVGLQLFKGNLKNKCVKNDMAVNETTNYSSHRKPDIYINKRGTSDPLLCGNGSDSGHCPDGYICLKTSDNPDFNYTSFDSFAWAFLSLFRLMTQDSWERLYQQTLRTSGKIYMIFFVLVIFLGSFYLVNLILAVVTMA
Chain of human NaV 1.8 (Q9Y5Y9 660-890 limits assumed): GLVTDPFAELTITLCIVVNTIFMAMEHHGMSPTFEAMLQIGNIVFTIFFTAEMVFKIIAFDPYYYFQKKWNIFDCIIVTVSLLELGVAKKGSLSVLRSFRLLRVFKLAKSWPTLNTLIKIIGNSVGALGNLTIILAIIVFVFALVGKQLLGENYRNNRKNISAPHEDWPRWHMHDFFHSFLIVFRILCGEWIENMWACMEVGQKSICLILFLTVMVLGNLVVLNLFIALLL
Chain of human NaV 1.8 (Q9Y5Y9 1148-1722 limits assumed): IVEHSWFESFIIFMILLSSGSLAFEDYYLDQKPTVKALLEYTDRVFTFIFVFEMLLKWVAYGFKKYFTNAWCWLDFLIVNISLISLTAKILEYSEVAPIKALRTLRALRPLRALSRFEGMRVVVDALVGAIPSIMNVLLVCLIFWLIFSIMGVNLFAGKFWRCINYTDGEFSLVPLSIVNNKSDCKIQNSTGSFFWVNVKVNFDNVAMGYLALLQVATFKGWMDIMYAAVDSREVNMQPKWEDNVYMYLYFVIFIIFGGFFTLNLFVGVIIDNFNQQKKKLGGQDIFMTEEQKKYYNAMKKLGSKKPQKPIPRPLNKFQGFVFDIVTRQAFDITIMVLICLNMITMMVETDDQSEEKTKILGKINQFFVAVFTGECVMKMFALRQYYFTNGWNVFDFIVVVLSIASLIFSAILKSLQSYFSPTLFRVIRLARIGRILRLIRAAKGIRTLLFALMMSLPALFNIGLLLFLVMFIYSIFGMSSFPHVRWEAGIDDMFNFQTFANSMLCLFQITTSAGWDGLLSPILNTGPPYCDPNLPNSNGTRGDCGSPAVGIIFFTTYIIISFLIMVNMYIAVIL

| IC50 | SMILES |
| --- | --- |
| 0.01 to 0.1 µM | C[C@H]1[C@@H](c2ccc(F)c(F)c2OCCN2CC3(COC3)C2)[C@H](C(=O)Nc2ccc3nncn3c2)O[C@@]1(C)C(F)(F)F [Compound 620, (2R,3S,4S,5R)-3-(2-(2-(2-oxa-6-azaspiro[3.3]heptan-6-yl)ethoxy)-3,4-difluorophenyl)-N-([1,2,4]triazolo[4,3-a]pyridin-6-yl)-4,5-dimethyl-5-(trifluoromethyl)tetrahydrofuran-2-carboxamide] |
| < 0.01 µM | C[C@H]1[C@@H](c2ccc(F)c(F)c2OCC2COC2)[C@H](C(=O)Nc2ccc3cnnn3c2)O[C@@]1(C)C(F)(F)F [Compound 621, (2R,3S,4S,5R)-3-[3,4-difluoro-2-(oxetan-3-ylmethoxy)phenyl]-4,5-dimethyl-N-(triazolo[1,5-a]pyridin-6-yl)-5-(trifluoromethyl)tetrahydrofuran-2-carboxamide] |
| < 0.01 µM | C=C(CO)COc1c([C@H]2[C@H](C(=O)Nc3ccc4cnnn4c3)O[C@@](C)(C(F)(F)F)[C@H]2C)ccc(F)c1F [Compound 622, (2R,3S,4S,5R)-3-[3,4-difluoro-2-[2-(hydroxymethyl)allyloxy]phenyl]-4,5-dimethyl-N-(triazolo[1,5-a]pyridin-6-yl)-5-(trifluoromethyl)tetrahydrofuran-2-carboxamide] |
| 0.01 to 0.1 µM | Cc1nocc1NC(=O)[C@@H]1O[C@@](C)(C(F)(F)F)[C@@H](C)[C@H]1c1ccc(F)c(F)c1OC[C@H](C)N1CC2(COC2)C1 [Compound 623, (2R,3S,4S,5R)-3-[3,4-difluoro-2-[(2S)-2-(2-oxa-6-azaspiro[3.3]heptan-6-yl)propoxy]phenyl]-4,5-dimethyl-N-(3-methylisoxazol-4-yl)-5-(trifluoromethyl)tetrahydrofuran-2-carboxamide] |
| 0.1 to 1 µM | Cc1nocc1NC(=O)[C@@H]1O[C@@](C)(C(F)(F)F)[C@@H](C)[C@H]1c1ccc(F)c(F)c1OC[C@@H](C)N1CC2(COC2)C1 [Compound 624, (2R,3S,4S,5R)-3-[3,4-difluoro-2-[(2R)-2-(2-oxa-6-azaspiro[3.3]heptan-6-yl)propoxy]phenyl]-4,5-dimethyl-N-(3-methylisoxazol-4-yl)-5-(trifluoromethyl)tetrahydrofuran-2-carboxamide] |
| < 0.01 µM | Cc1nocc1NC(=O)[C@@H]1O[C@@](C)(C(F)(F)F)[C@@H](C)[C@H]1c1ccc(F)c(F)c1OCCN1CC(F)C1 [Compound 625, (2R,3S,4S,5R)-3-(3,4-difluoro-2-(2-(3-fluoroazetidin-1-yl)ethoxy)phenyl)-4,5-dimethyl-N-(3-methylisoxazol-4-yl)-5-(trifluoromethyl)tetrahydrofuran-2-carboxamide] |
| 0.1 to 1 µM | Cc1nocc1NC(=O)[C@@H]1O[C@@](C)(C(F)(F)F)[C@@H](C)[C@H]1c1ccc(F)c(F)c1OCCN1CC(C)(O)C1 [Compound 626, (2R,3S,4S,5R)-3-(3,4-difluoro-2-(2-(3-hydroxy-3-methylazetidin-1-yl)ethoxy)phenyl)-4,5-dimethyl-N-(3-methylisoxazol-4-yl)-5-(trifluoromethyl)tetrahydrofuran-2-carboxamide] |
| 0.01 to 0.1 µM | COC1CN(CCOc2c([C@H]3[C@H](C(=O)Nc4conc4C)O[C@@](C)(C(F)(F)F)[C@H]3C)ccc(F)c2F)C1 [Compound 627, (2R,3S,4S,5R)-3-(3,4-difluoro-2-(2-(3-methoxyazetidin-1-yl)ethoxy)phenyl)-4,5-dimethyl-N-(3-methylisoxazol-4-yl)-5-(trifluoromethyl)tetrahydrofuran-2-carboxamide] |
| 0.01 to 0.1 µM | Cc1nocc1NC(=O)[C@@H]1O[C@@](C)(C(F)(F)F)[C@@H](C)[C@H]1c1ccc(F)c(F)c1OCCN1CC(OC(F)F)C1 [Compound 628, (2R,3S,4S,5R)-3-(2-(2-(3-(difluoromethoxy)azetidin-1-yl)ethoxy)-3,4-difluorophenyl)-4,5-dimethyl-N-(3-methylisoxazol-4-yl)-5-(trifluoromethyl)tetrahydrofuran-2-carboxamide] |
| 0.01 to 0.1 µM | Cc1nocc1NC(=O)[C@@H]1O[C@@](C)(C(F)(F)F)[C@@H](C)[C@H]1c1ccc(F)c(F)c1OCCN1CC(C(F)F)C1 [Compound 629, (2R,3S,4S,5R)-3-(2-(2-(3-(difluoromethyl)azetidin-1-yl)ethoxy)-3,4-difluorophenyl)-4,5-dimethyl-N-(3-methylisoxazol-4-yl)-5-(trifluoromethyl)tetrahydrofuran-2-carboxamide] |
| 0.01 to 0.1 µM | Cc1nocc1NC(=O)[C@@H]1O[C@@](C)(C(F)(F)F)[C@@H](C)[C@H]1c1ccc(F)c(F)c1OCCN1CC(C)(F)C1 [Compound 630, (2R,3S,4S,5R)-3-(3,4-difluoro-2-(2-(3-fluoro-3-methylazetidin-1-yl)ethoxy)phenyl)-4,5-dimethyl-N-(3-methylisoxazol-4-yl)-5-(trifluoromethyl)tetrahydrofuran-2-carboxamide] |
| 0.01 to 0.1 µM | Cc1nocc1NC(=O)[C@@H]1O[C@@](C)(C(F)(F)F)[C@@H](C)[C@H]1c1ccc(F)c(F)c1OCCNC1COC1 [Compound 631, (2R,3S,4S,5R)-3-(3,4-difluoro-2-(2-(oxetan-3-ylamino)ethoxy)phenyl)-4,5-dimethyl-N-(3-methylisoxazol-4-yl)-5-(trifluoromethyl)tetrahydrofuran-2-carboxamide] |
| 0.01 to 0.1 µM | Cc1nocc1NC(=O)[C@@H]1O[C@@](C)(C(F)(F)F)[C@@H](C)[C@H]1c1ccc(F)c(F)c1OCCN[C@@H]1CCOC1 [Compound 632, (2R,3S,4S,5R)-3-(3,4-difluoro-2-(2-(((R)-tetrahydrofuran-3-yl)amino)ethoxy)phenyl)-4,5-dimethyl-N-(3-methylisoxazol-4-yl)-5-(trifluoromethyl)tetrahydrofuran-2-carboxamide] |
| 0.01 to 0.1 µM | Cc1nocc1NC(=O)[C@@H]1O[C@@](C)(C(F)(F)F)[C@@H](C)[C@H]1c1ccc(F)c(F)c1OCCN1C[C@H]2COC[C@H]2C1 [Compound 634, (2R,3S,4S,5R)-3-(3,4-difluoro-2-(2-((3aR,6aS)-tetrahydro-1H-furo[3,4-c]pyrrol-5(3H)-yl)ethoxy)phenyl)-4,5-dimethyl-N-(3-methylisoxazol-4-yl)-5-(trifluoromethyl)tetrahydrofuran-2-carboxamide] |
| 0.01 to 0.1 µM | C[C@H]1[C@@H](c2ccc(F)c(F)c2OCCN2CC(F)C2)[C@H](C(=O)Nc2ccc3nncn3c2)O[C@@]1(C)C(F)(F)F [Compound 635] |
| 0.01 to 0.1 µM | C[C@H]1[C@@H](c2ccc(F)c(F)c2OCCN2CC3(COC3)C2)[C@H](C(=O)Nc2cccnc2)O[C@@]1(C)C(F)(F)F [Compound 636] |
| 0.01 to 0.1 µM | CC(=O)N(C)c1cc(NC(=O)[C@@H]2O[C@@](C)(C(F)(F)F)[C@@H](C)[C@H]2c2ccc(F)c(F)c2OCCN2CC3(COC3)C2)ccn1 [Compound 637, (2R,3S,4S,5R)-N-[2-[acetyl(methyl)amino]-4-pyridyl]-3-[3,4-difluoro-2-[2-(2-oxa-6-azaspiro[3.3]heptan-6-yl)ethoxy]phenyl]-4,5-dimethyl-5-(trifluoromethyl)tetrahydrofuran-2-carboxamide] |

| SMILES | IC50 |
| --- | --- |
| Cc1nocc1NC(=O)[C@@H]1O[C@@](C)(C(F)(F)F)[C@@H](C)[C@H]1c1ccc(F)c(F)c1OCCN1CC2CC(C1)O2 [Compound 633, (2R,3S,4S,5R)-3-(2-(2-(6-oxa-3-azabicyclo[3.1.1]heptan-3-yl)ethoxy)-3,4-difluorophenyl)-4,5-dimethyl-N-(3-methylisoxazol-4-yl)-5-(trifluoromethyl)tetrahydrofuran-2-carboxamide] | 0.01 to 0.1 µM |
